# Experimental data: patent publication US20260027116A1, “Methods of Treating Chronic Graft-Versus-Host Disease Following Allogeneic Hematopoietic Stem Cell Transplantation” (Kadmon Corporation, LLC, priority 2022, published 2026)
# Tests used:
# OATPIB1 = molecular target: T1, OATPIB1 (Homo sapiens, UniProt Q9Y6L6); test: transporter inhibition in vitro; format: in vitro ADME; details: at clinically relevant concentrations
# T1 sequence (Q9Y6L6 1-691): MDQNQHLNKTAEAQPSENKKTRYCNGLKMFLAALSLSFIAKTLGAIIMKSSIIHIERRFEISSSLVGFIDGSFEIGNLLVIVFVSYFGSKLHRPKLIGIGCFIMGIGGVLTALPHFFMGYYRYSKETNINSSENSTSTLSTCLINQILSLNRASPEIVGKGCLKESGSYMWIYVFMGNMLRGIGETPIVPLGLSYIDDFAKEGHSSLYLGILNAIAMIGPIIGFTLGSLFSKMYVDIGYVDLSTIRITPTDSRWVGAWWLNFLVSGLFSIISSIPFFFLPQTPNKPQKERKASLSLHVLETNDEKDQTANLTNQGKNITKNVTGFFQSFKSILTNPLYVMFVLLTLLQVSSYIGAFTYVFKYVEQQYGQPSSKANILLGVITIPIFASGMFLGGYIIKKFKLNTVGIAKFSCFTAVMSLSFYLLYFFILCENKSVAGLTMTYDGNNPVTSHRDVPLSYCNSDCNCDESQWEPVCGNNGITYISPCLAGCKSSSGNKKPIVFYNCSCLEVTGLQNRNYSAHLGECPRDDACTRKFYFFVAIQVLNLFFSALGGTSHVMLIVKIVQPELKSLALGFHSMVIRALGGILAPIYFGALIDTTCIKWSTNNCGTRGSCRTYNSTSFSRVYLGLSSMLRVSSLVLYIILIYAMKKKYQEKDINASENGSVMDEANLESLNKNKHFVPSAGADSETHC
# CYP1A2 = molecular target: T2, CYP1A2 (Homo sapiens, UniProt P05177); test: enzyme inhibition in vitro; format: in vitro ADME
# T2 sequence (P05177 1-516): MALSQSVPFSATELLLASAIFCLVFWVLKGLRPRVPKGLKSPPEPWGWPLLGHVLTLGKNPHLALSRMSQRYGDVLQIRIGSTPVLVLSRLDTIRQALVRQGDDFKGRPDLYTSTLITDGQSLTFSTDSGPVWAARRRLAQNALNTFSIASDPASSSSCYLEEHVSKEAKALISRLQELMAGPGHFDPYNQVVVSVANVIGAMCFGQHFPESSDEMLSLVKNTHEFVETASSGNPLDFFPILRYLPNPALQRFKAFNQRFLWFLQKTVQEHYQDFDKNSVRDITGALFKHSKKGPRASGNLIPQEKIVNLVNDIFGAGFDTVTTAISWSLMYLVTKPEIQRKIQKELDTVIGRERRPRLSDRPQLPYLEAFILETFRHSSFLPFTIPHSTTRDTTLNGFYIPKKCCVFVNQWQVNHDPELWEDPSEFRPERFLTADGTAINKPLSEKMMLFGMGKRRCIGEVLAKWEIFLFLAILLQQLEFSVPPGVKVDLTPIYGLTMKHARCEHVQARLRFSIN
compound,measurement,setting,value
"CC(C)NC(=O)COc1cccc(-c2nc(Nc3ccc4[nH]ncc4c3)c3ccccc3n2)c1 [Belumosudil, 2-{3-[4-(1H-indazol-5-ylamino)-2-quinazolinyl]phenoxy}-N-(propan-2-yl) acetamide]",inhibition of OATPIB1,OATPIB1,inhibits
same,inhibition of CYP1A2,CYP1A2,inhibitor
